Measurements reported in patent US9650395B2, “Antibacterial compounds and methods for use” (PTC Therapeutics, Inc., priority 2011, dated 2017).
In brackets after ≈: the same amount, converted by molar mass. Read-outs that look alike come from different tables or passages of the source.

Legend:
[1] = tested on: E. coli ELZ4000 (MDR clinical isolate); assay: Antibacterial activity, MIC, MDR E. coli ELZ4000; assay type: cell-based, Escherichia coli; details: Escherichia coli, read-out: MIC ELZ4000
[2] = tested on: Gram-positive Staphylococcus aureus (S. aureus) 29213; assay: Antibacterial activity, microbroth dilution MIC, S. aureus 29213; assay type: cell-based; details: Staphylococcus aureus; S. aureus 29213, microbroth dilution; read-out: MIC, 29213
[3] = tested on: Pseudomonas aeruginosa (P. aeruginosa) 27853; assay: Antibacterial activity, MIC, P. aeruginosa 27853; assay type: cell-based; details: Pseudomonas aeruginosa, read-out: MIC 27853
Description: (§1) The antibacterial activity from a microbroth dilution method may be presented as the minimum inhibitory concentration (MIC in […]). The MIC value is the lowest concentration of a drug which prevents macroscopically visible bacterial growth under test conditions.
Antibacterial activity of test compounds against the Gram-negative bacterium Pseudomonas aeruginosa (P. aeruginosa) 27853 is shown in Table 5.

[4] = tested on: Klebsiella pneumoniae (K. pneumoniae) 35657; assay: Antibacterial activity, MIC, K. pneumoniae 35657; assay type: cell-based; details: Klebsiella pneumoniae
[5] = tested on: E. coli ELZ4251 (MDR clinical isolate); assay: Antibacterial activity, MIC, MDR E. coli ELZ4251; assay type: cell-based, Escherichia coli; details: Escherichia coli, read-out: MIC ELZ4251
[6] = tested on: control Gram-negative E. coli 25922 strain; assay: Antibacterial activity, microbroth dilution MIC, E. coli 25922; assay type: cell-based, Escherichia coli; details: Escherichia coli; E. coli 25922, microbroth dilution; read-out: MIC, 25922
[7] = tested on: super sensitive Gram-negative Escherichia coli (E. coli) BAS849; assay: Antibacterial activity, microbroth dilution MIC, E. coli BAS849; assay type: cell-based; details: Escherichia coli, read-out: MIC, BAS849
[8] = tested on: quinolone resistant E. coli LZ3111; assay: Antibacterial activity, MIC, quinolone resistant E. coli LZ3111; assay type: cell-based, Escherichia coli; details: Escherichia coli, read-out: MIC, LZ3111
Description: as §1
Mutations in these regions are known to confer a high level resistance to the quinolone class of antibiotics.

[9] = tested on: Acinetobacter baumannii (A. baumannii) BAA747; assay: Antibacterial activity, MIC, A. baumannii BAA747; assay type: cell-based; details: Acinetobacter baumannii
[10] = tested on: Haemophilus influenzae (H. influenzae) 49247; assay: Antibacterial activity, MIC, H. influenzae 49247; assay type: cell-based; details: Haemophilus influenzae, read-out: MIC 49247
Outline: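 A microbroth dilution method gave the minimum inhibitory concentration for each compound against H. influenzae 49247, a Gram-negative bacterium. MIC means the smallest concentration of drug at which no macroscopically visible bacterial growth appears under the conditions of the test.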

[11] = tested on: Moraxella catarrhalis (M. catarrhalis) 25238; assay: Antibacterial activity, MIC, M. catarrhalis 25238; assay type: cell-based; details: Moraxella catarrhalis, read-out: MIC 25238
[12] = tested on: Neisseria meningitidis (N. meningitidis) 13090; assay: Antibacterial activity, MIC, N. meningitidis 13090; assay type: cell-based; details: Neisseria meningitidis, read-out: MIC 13090
[13] = E. coli ELZ4000, MDR clinical isolate
[14] = E. coli ELZ4251, MDR clinical isolate
[15] = E. coli BAS849, microbroth dilution

Compound	MIC [1, 13] [µg/mL]	MIC [2] [µg/mL]	MIC ([3]; P. aeruginosa 27853) [µg/mL]	MIC [4] [µg/mL]	MIC [5, 14] [µg/mL]	MIC [6] [µg/mL]	MIC [7, 15] [µg/mL]	MIC [8] [µg/mL]	MIC ([9]; A. baumannii BAA747, read-out: MIC BAA747) [µg/mL]	MIC ([10]; H. influenzae 49247) [µg/mL]	MIC ([11]; M. catarrhalis 25238) [µg/mL]	MIC ([12]; N. meningitidis 13090) [µg/mL]	MIC ([9]; BAA747, read-out: MIC BAA747) [µg/mL]	MIC [1] [µg/mL]	MIC [10] [µg/mL]	MIC [11] [µg/mL]	MIC [12] [µg/mL]	MIC [3] [µg/mL]	MIC [5] [µg/mL]	MIC [7] [µg/mL]
Cc1cc(C(=O)O)c(=O)[nH]c1-c1ccc(N(C)C)cc1 [Cpd 4, 6-[4-(dimethylamino)phenyl]-5-methyl-2-oxo-1,2-dihydropyridine-3-carboxylic acid]	12.5 to 150 (≈ 45.9 to 551 µM)	12.5 to 150 (≈ 45.9 to 551 µM)	12.5 to 150 (≈ 45.9 to 551 µM)	3.5 to 12.5 (≈ 12.9 to 45.9 µM)	12.5 to 150 (≈ 45.9 to 551 µM)	12.5 to 150 (≈ 45.9 to 551 µM)	< 1	12.5 to 150 (≈ 45.9 to 551 µM)	–	–	–	–	–	–	–	–	–	–	–	–
CCc1cc(C(=O)O)c(=O)[nH]c1-c1ccc(N2CCOCC2)c(F)c1 [Cpd 84, 5-ethyl-6-[3-fluoro-4-(morpholin-4-yl)phenyl]-2-oxo-1,2-dihydropyridine-3-carboxylic acid]	12.5 to 150 (≈ 36.1 to 433 µM)	12.5 to 150 (≈ 36.1 to 433 µM)	12.5 to 150 (≈ 36.1 to 433 µM)	–	12.5 to 150 (≈ 36.1 to 433 µM)	12.5 to 150 (≈ 36.1 to 433 µM)	3.5 to 12.5 (≈ 10.1 to 36.1 µM)	12.5 to 150 (≈ 36.1 to 433 µM)	12.5 to 150 (≈ 36.1 to 433 µM)	< 1	3.5 to 12.5 (≈ 10.1 to 36.1 µM)	1 to 3.5 (≈ 2.89 to 10.1 µM)	–	–	–	–	–	–	–	–
CCc1cc(C(=O)O)c(=O)[nH]c1-c1ccc(N2CCNCC2)c(F)c1.O=C(O)C(F)(F)F [Cpd 92, 5-ethyl-6-[3-fluoro-4-(piperazin-1-yl)phenyl]-2-oxo-1,2-dihydropyridine-3-carboxylic acid trifluoroacetate]	–	12.5 to 150	–	–	–	12.5 to 150	–	12.5 to 150	–	–	–	–	12.5 to 150	12.5 to 150	1 to 3.5	12.5 to 150	3.5 to 12.5	12.5 to 150	12.5 to 150	12.5 to 150
CC(C)c1cc(C(=O)O)c(=O)[nH]c1-c1ccc(N(C)C)cc1 [Cpd 95, 6-[4-(dimethylamino)phenyl]-2-oxo-5-(propan-2-yl)-1,2-dihydropyridine-3-carboxylic acid]	12.5 to 150 (≈ 41.6 to 499 µM)	12.5 to 150 (≈ 41.6 to 499 µM)	12.5 to 150 (≈ 41.6 to 499 µM)	12.5 to 150 (≈ 41.6 to 499 µM)	12.5 to 150 (≈ 41.6 to 499 µM)	3.5 to 12.5 (≈ 11.7 to 41.6 µM)	< 1	12.5 to 150 (≈ 41.6 to 499 µM)	–	< 1	< 1	< 1	–	–	–	–	–	–	–	–
CCc1cc(C(=O)O)c(=O)[nH]c1-c1ccc(N(CC)CC)cc1 [Cpd 97, 6-[4-(diethylamino)phenyl]-5-ethyl-2-oxo-1,2-dihydropyridine-3-carboxylic acid]	12.5 to 150 (≈ 39.8 to 477 µM)	12.5 to 150 (≈ 39.8 to 477 µM)	12.5 to 150 (≈ 39.8 to 477 µM)	3.5 to 12.5 (≈ 11.1 to 39.8 µM)	12.5 to 150 (≈ 39.8 to 477 µM)	3.5 to 12.5 (≈ 11.1 to 39.8 µM)	< 1	12.5 to 150 (≈ 39.8 to 477 µM)	–	< 1	< 1	< 1	–	–	–	–	–	–	–	–
CCc1cc(C(=O)O)c(=O)[nH]c1-c1ccc(N2CCCC2)cc1 [Cpd 99, 5-ethyl-2-oxo-6-[4-(pyrrolidin-1-yl)phenyl]-1,2-dihydropyridine-3-carboxylic acid]	12.5 to 150 (≈ 40 to 480 µM)	1 to 3.5 (≈ 3.2 to 11.2 µM)	3.5 to 12.5 (≈ 11.2 to 40 µM)	3.5 to 12.5 (≈ 11.2 to 40 µM)	12.5 to 150 (≈ 40 to 480 µM)	< 1	< 1	12.5 to 150 (≈ 40 to 480 µM)	–	< 1	< 1	< 1	–	–	–	–	–	–	–	–
CCc1c(-c2ccc(N3CCCC3)cc2)[nH]c(=O)c(C(=O)O)c1O [Cpd 100, 5-ethyl-4-hydroxy-2-oxo-6-[4-(pyrrolidin-1-yl)phenyl]-1,2-dihydropyridine-3-carboxylic acid]	12.5 to 150 (≈ 38.1 to 457 µM)	1 to 3.5 (≈ 3.05 to 10.7 µM)	12.5 to 150 (≈ 38.1 to 457 µM)	12.5 to 150 (≈ 38.1 to 457 µM)	12.5 to 150 (≈ 38.1 to 457 µM)	3.5 to 12.5 (≈ 10.7 to 38.1 µM)	< 1	12.5 to 150 (≈ 38.1 to 457 µM)	–	< 1	< 1	< 1	–	–	–	–	–	–	–	–
CCc1cc(C(=O)O)c(=O)[nH]c1-c1ccc(-n2cccc2)cc1 [Cpd 101, 5-ethyl-2-oxo-6-[4-(1H-pyrrol-1-yl)phenyl]-1,2-dihydropyridine-3-carboxylic acid]	12.5 to 150 (≈ 40.5 to 486 µM)	12.5 to 150 (≈ 40.5 to 486 µM)	12.5 to 150 (≈ 40.5 to 486 µM)	3.5 to 12.5 (≈ 11.4 to 40.5 µM)	12.5 to 150 (≈ 40.5 to 486 µM)	12.5 to 150 (≈ 40.5 to 486 µM)	< 1	12.5 to 150 (≈ 40.5 to 486 µM)	–	< 1	< 1	< 1	–	–	–	–	–	–	–	–
